Assay results published in the NIST ThermoML archive (doi:10.1016/j.tca.2005.08.034).
± gives the expanded uncertainty stated by the source.

Legend:
[1] = refractive index (Na D-line) (dimensionless); settings: 298.15 K; 101.33 kPa; Liquid; refractometer
[2] = 298.15 K; for surface tension liquid-gas: Drop volume; for speed of sound / mass density: 101.33 kPa, Liquid; for mass density: Vibrating tube method
[3] = xn = mol fraction of the nth substance listed; settings: 298.15 K; for surface tension liquid-gas: Drop volume; for mass density / speed of sound: 101.3 kPa, Liquid; for mass density: Vibrating tube method
[4] = refractive index (Na D-line) (dimensionless); φn = volume fraction of the nth substance listed; settings: 298.15 K, 101.3 kPa, Liquid, refractometer
[5] = excess molar enthalpy (molar enthalpy of mixing); xn = mol fraction of the nth substance listed; settings: 298.15 K, 101.3 kPa, Liquid, Flow calorimetry

CC1CCCO1 (stereo unspecified) [2-methyltetrahydrofuran]
Settings	mass density [kg/m3]	refractive index	speed of sound [m/s]	surface tension liquid-gas [mN/m]
[1]	–	1.40287 ± 0.00022	–	–
[2]	849.2 ± 0.45	–	1202.8 ± 2.3	24.68 ± 0.31

CC1CCCO1 (stereo unspecified) [2-methyltetrahydrofuran] + Clc1ccccc1
Settings	excess molar enthalpy [kcal/mol]	mass density [kg/m3]	refractive index	speed of sound [m/s]	surface tension liquid-gas [mN/m]
[3], x1 = 0.0378	–	1092.14 ± 0.3	–	1266.6 ± 2.1	–
[3], x1 = 0.0483	–	–	–	–	32.6 ± 0.37
[3], x1 = 0.0969	–	–	–	–	32.19 ± 0.37
[3], x1 = 0.0995	–	1077.75 ± 0.31	–	1264.3 ± 2.1	–
[3], x1 = 0.1875	–	1056.86 ± 0.33	–	1261.1 ± 2.1	–
[3], x1 = 0.1993	–	–	–	–	31.31 ± 0.36
[3], x1 = 0.2987	–	1030.2 ± 0.35	–	1256.5 ± 2.2	–
[3], x1 = 0.2999	–	–	–	–	30.45 ± 0.35
[3], x1 = 0.3922	–	1007.36 ± 0.37	–	1251.9 ± 2.2	–
[3], x1 = 0.3988	–	–	–	–	29.61 ± 0.35
[3], x1 = 0.4947	–	981.73 ± 0.4	–	1246.3 ± 2.2	–
[3], x1 = 0.503	–	–	–	–	28.74 ± 0.34
[3], x1 = 0.5973	–	955.71 ± 0.41	–	1239.9 ± 2.2	–
[3], x1 = 0.6008	–	–	–	–	27.92 ± 0.33
[3], x1 = 0.6435	–	943.88 ± 0.41	–	1236.6 ± 2.2	–
[3], x1 = 0.7024	–	–	–	–	27.09 ± 0.33
[3], x1 = 0.8003	–	902.98 ± 0.43	–	1223.5 ± 2.3	–
[3], x1 = 0.8028	–	–	–	–	26.27 ± 0.32
[3], x1 = 0.9051	–	–	–	–	25.44 ± 0.31
[3], x1 = 0.9074	–	874.39 ± 0.44	–	1212.9 ± 2.3	–
[3], x1 = 0.9393	–	865.76 ± 0.44	–	1209.6 ± 2.3	–
[3], x1 = 0.9496	–	–	–	–	25.08 ± 0.31
[4], φ1 = 0.0479	–	–	1.5165 ± 0.00014	–	–
[4], φ1 = 0.0961	–	–	1.5112 ± 0.00014	–	–
[4], φ1 = 0.1979	–	–	1.49985 ± 0.00015	–	–
[4], φ1 = 0.2981	–	–	1.48853 ± 0.00016	–	–
[4], φ1 = 0.3966	–	–	1.47724 ± 0.00017	–	–
[4], φ1 = 0.5008	–	–	1.46501 ± 0.00018	–	–
[4], φ1 = 0.5987	–	–	1.45323 ± 0.00019	–	–
[4], φ1 = 0.7006	–	–	1.44079 ± 0.00019	–	–
[4], φ1 = 0.8014	–	–	1.4283 ± 0.0002	–	–
[4], φ1 = 0.9043	–	–	1.41518 ± 0.00021	–	–
[4], φ1 = 0.9492	–	–	1.40941 ± 0.00021	–	–
[5], x1 = 0.058	-0.0203 ± 0.000956	–	–	–	–
[5], x1 = 0.105	-0.0402 ± 0.0012	–	–	–	–
[5], x1 = 0.198	-0.0793 ± 0.00191	–	–	–	–
[5], x1 = 0.294	-0.114 ± 0.00263	–	–	–	–
[5], x1 = 0.391	-0.137 ± 0.00287	–	–	–	–
[5], x1 = 0.488	-0.15 ± 0.00335	–	–	–	–
[5], x1 = 0.585	-0.149 ± 0.00311	–	–	–	–
[5], x1 = 0.683	-0.137 ± 0.00311	–	–	–	–
[5], x1 = 0.784	-0.107 ± 0.00239	–	–	–	–
[5], x1 = 0.883	-0.0626 ± 0.00167	–	–	–	–
[5], x1 = 0.932	-0.0394 ± 0.00143	–	–	–	–

CC1CCCO1 (stereo unspecified) [2-methyltetrahydrofuran] + c1ccccc1
Settings	excess molar enthalpy [kcal/mol]	mass density [kg/m3]	refractive index	speed of sound [m/s]	surface tension liquid-gas [mN/m]
[3], x1 = 0.0456	–	872.27 ± 0.13	–	1295.7 ± 2.1	–
[3], x1 = 0.0536	–	–	–	–	28.33 ± 0.32
[3], x1 = 0.0971	–	–	–	–	28.15 ± 0.32
[3], x1 = 0.0981	–	871 ± 0.14	–	1290.9 ± 2.1	–
[3], x1 = 0.1962	–	–	–	–	27.74 ± 0.31
[3], x1 = 0.1987	–	868.57 ± 0.17	–	1281.6 ± 2.1	–
[3], x1 = 0.2996	–	866.21 ± 0.2	–	1271.8 ± 2.1	–
[3], x1 = 0.3039	–	–	–	–	27.3 ± 0.31
[3], x1 = 0.395	–	863.99 ± 0.23	–	1263 ± 2.1	–
[3], x1 = 0.396	–	–	–	–	26.92 ± 0.31
[3], x1 = 0.4976	–	–	–	–	26.51 ± 0.31
[3], x1 = 0.4979	–	861.47 ± 0.27	–	1253.1 ± 2.1	–
[3], x1 = 0.5949	–	859.05 ± 0.3	–	1243.6 ± 2.2	–
[3], x1 = 0.5976	–	–	–	–	26.12 ± 0.31
[3], x1 = 0.6798	–	856.87 ± 0.33	–	1235.1 ± 2.2	–
[3], x1 = 0.704	–	–	–	–	25.71 ± 0.31
[3], x1 = 0.7992	–	853.68 ± 0.37	–	1222.7 ± 2.2	–
[3], x1 = 0.8033	–	–	–	–	25.36 ± 0.31
[3], x1 = 0.896	–	851.23 ± 0.41	–	1212.7 ± 2.3	–
[3], x1 = 0.9034	–	–	–	–	25.01 ± 0.31
[3], x1 = 0.9486	–	850.1 ± 0.43	–	1207.5 ± 2.3	–
[3], x1 = 0.9535	–	–	–	–	24.84 ± 0.31
[4], φ1 = 0.0603	–	–	1.49204 ± 9.3e-05	–	–
[4], φ1 = 0.1086	–	–	1.48747 ± 9.7e-05	–	–
[4], φ1 = 0.2167	–	–	1.47724 ± 0.00011	–	–
[4], φ1 = 0.331	–	–	1.46642 ± 0.00012	–	–
[4], φ1 = 0.4263	–	–	1.4574 ± 0.00014	–	–
[4], φ1 = 0.5289	–	–	1.44769 ± 0.00015	–	–
[4], φ1 = 0.6273	–	–	1.43835 ± 0.00016	–	–
[4], φ1 = 0.7294	–	–	1.42866 ± 0.00018	–	–
[4], φ1 = 0.8223	–	–	1.41981 ± 0.00019	–	–
[4], φ1 = 0.9137	–	–	1.41109 ± 0.0002	–	–
[4], φ1 = 0.9587	–	–	1.40681 ± 0.00021	–	–
[5], x1 = 0.054	-0.00526 ± 0.000478	–	–	–	–
[5], x1 = 0.097	-0.011 ± 0.000478	–	–	–	–
[5], x1 = 0.188	-0.0232 ± 0.000717	–	–	–	–
[5], x1 = 0.279	-0.033 ± 0.000717	–	–	–	–
[5], x1 = 0.377	-0.0409 ± 0.000956	–	–	–	–
[5], x1 = 0.494	-0.0449 ± 0.000956	–	–	–	–
[5], x1 = 0.575	-0.0464 ± 0.000956	–	–	–	–
[5], x1 = 0.679	-0.0423 ± 0.000956	–	–	–	–
[5], x1 = 0.783	-0.0332 ± 0.000717	–	–	–	–
[5], x1 = 0.89	-0.0196 ± 0.000478	–	–	–	–
[5], x1 = 0.944	-0.0108 ± 0.000478	–	–	–	–

c1ccccc1 [benzene]
Settings	mass density [kg/m3]	refractive index	speed of sound [m/s]	surface tension liquid-gas [mN/m]
[1]	–	1.49774 ± 9e-05	–	–
[2]	873.39 ± 0.12	–	1299.2 ± 2.1	28.57 ± 0.32

Clc1ccccc1 [chlorobenzene]
Settings	mass density [kg/m3]	refractive index	speed of sound [m/s]	surface tension liquid-gas [mN/m]
[1]	–	1.52176 ± 0.00013	–	–
[2]	1100.94 ± 0.3	–	1267.9 ± 2.1	33 ± 0.37

Fc1ccccc1 [fluorobenzene]
Settings	mass density [kg/m3]	refractive index	speed of sound [m/s]	surface tension liquid-gas [mN/m]
[1]	–	1.4629 ± 0.00022	–	–
[2]	1018.79 ± 0.52	–	1166 ± 2.3	27.43 ± 0.34

Fc1ccccc1 [fluorobenzene] + CC1CCCO1
Settings	excess molar enthalpy [kcal/mol]	mass density [kg/m3]	refractive index	speed of sound [m/s]	surface tension liquid-gas [mN/m]
[3], x2 = 0.0364	–	–	–	–	27.39 ± 0.34
[3], x2 = 0.0456	–	1011.05 ± 0.52	–	1168.5 ± 2.3	–
[3], x2 = 0.099	–	1001.97 ± 0.51	–	1171.6 ± 2.3	–
[3], x2 = 0.108	–	–	–	–	27.27 ± 0.33
[3], x2 = 0.1923	–	986.13 ± 0.5	–	1176.9 ± 2.3	–
[3], x2 = 0.1998	–	–	–	–	27.07 ± 0.33
[3], x2 = 0.2882	–	969.82 ± 0.5	–	1182.1 ± 2.3	–
[3], x2 = 0.2952	–	–	–	–	26.83 ± 0.33
[3], x2 = 0.3925	–	952.32 ± 0.49	–	1187.1 ± 2.3	–
[3], x2 = 0.3998	–	–	–	–	26.52 ± 0.33
[3], x2 = 0.4884	–	936.02 ± 0.49	–	1191.1 ± 2.3	–
[3], x2 = 0.4958	–	–	–	–	26.21 ± 0.32
[3], x2 = 0.5925	–	918.32 ± 0.48	–	1194.8 ± 2.3	–
[3], x2 = 0.6048	–	–	–	–	25.86 ± 0.32
[3], x2 = 0.6784	–	–	–	–	25.62 ± 0.32
[3], x2 = 0.6907	–	901.51 ± 0.47	–	1197.6 ± 2.3	–
[3], x2 = 0.7796	–	–	–	–	25.3 ± 0.31
[3], x2 = 0.7942	–	883.72 ± 0.46	–	1199.4 ± 2.3	–
[3], x2 = 0.8938	–	866.65 ± 0.45	–	1201 ± 2.3	–
[3], x2 = 0.9097	–	–	–	–	24.92 ± 0.31
[3], x2 = 0.9481	–	857.59 ± 0.45	–	1201.9 ± 2.3	–
[3], x2 = 0.9707	–	–	–	–	24.76 ± 0.31
[4], φ2 = 0.039	–	–	1.4608 ± 0.00022	–	–
[4], φ2 = 0.1151	–	–	1.45666 ± 0.00022	–	–
[4], φ2 = 0.2069	–	–	1.4516 ± 0.00022	–	–
[4], φ2 = 0.3103	–	–	1.44577 ± 0.00022	–	–
[4], φ2 = 0.4171	–	–	1.4396 ± 0.00022	–	–
[4], φ2 = 0.5137	–	–	1.43392 ± 0.00022	–	–
[4], φ2 = 0.6218	–	–	1.42736 ± 0.00022	–	–
[4], φ2 = 0.6938	–	–	1.42282 ± 0.00022	–	–
[4], φ2 = 0.7916	–	–	1.41661 ± 0.00022	–	–
[4], φ2 = 0.9154	–	–	1.40849 ± 0.00022	–	–
[4], φ2 = 0.9727	–	–	1.40473 ± 0.00022	–	–
[5], x2 = 0.056	-0.0191 ± 0.000956	–	–	–	–
[5], x2 = 0.101	-0.0373 ± 0.0012	–	–	–	–
[5], x2 = 0.195	-0.0746 ± 0.00191	–	–	–	–
[5], x2 = 0.288	-0.103 ± 0.00239	–	–	–	–
[5], x2 = 0.388	-0.125 ± 0.00263	–	–	–	–
[5], x2 = 0.474	-0.138 ± 0.00311	–	–	–	–
[5], x2 = 0.583	-0.136 ± 0.00287	–	–	–	–
[5], x2 = 0.685	-0.124 ± 0.00263	–	–	–	–
[5], x2 = 0.786	-0.0966 ± 0.00215	–	–	–	–
[5], x2 = 0.889	-0.0574 ± 0.00143	–	–	–	–
[5], x2 = 0.94	-0.0323 ± 0.0012	–	–	–	–
